Results: ChEMBL document CHEMBL6121069, “A Medicinal Chemistry Perspective on Protein Tyrosine Phosphatase Nonreceptor Type 2 in Tumor Immunology” (J Med Chem, 2025)
Values belong to the compound of their own block, whether it stands above or below them.

Columns and labels:
B16-F10 [1] = assay: cells; conditions: Mus musculus
Description: Antiproliferative activity against mouse B16-F10 cells assessed as inhibition of cell growth

[2] = biological target: T1, Tyrosine-protein phosphatase non-receptor type 2 (Homo sapiens, UniProt P17706)
T1 sequence (P17706 whole entry): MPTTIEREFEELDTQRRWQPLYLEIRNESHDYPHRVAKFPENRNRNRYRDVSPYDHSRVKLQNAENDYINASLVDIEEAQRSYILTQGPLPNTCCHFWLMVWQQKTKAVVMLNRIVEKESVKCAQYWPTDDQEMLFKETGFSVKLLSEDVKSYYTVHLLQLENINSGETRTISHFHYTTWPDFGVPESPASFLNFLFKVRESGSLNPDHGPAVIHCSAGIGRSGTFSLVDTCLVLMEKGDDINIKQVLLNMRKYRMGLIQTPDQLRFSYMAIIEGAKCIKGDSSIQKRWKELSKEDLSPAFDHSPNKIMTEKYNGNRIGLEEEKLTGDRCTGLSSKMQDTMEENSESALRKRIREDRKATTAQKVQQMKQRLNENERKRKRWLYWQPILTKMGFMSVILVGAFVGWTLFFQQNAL
Description: Inhibition of full length human recombinant PTPN2 (1 to 387 residues)

[3] = biological target: T1, Tyrosine-protein phosphatase non-receptor type 2; remark: listed apart in the source
Description: Inhibition of wild type FLAG-tagged PTPN2 (unknown origin) extracted from Escherichia coli BL21 (DE3) by micro-plate reader assay

[4] = biological target: T2, Tyrosine-protein phosphatase non-receptor type 1 (Homo sapiens, UniProt P18031)
T2 sequence (P18031 whole entry): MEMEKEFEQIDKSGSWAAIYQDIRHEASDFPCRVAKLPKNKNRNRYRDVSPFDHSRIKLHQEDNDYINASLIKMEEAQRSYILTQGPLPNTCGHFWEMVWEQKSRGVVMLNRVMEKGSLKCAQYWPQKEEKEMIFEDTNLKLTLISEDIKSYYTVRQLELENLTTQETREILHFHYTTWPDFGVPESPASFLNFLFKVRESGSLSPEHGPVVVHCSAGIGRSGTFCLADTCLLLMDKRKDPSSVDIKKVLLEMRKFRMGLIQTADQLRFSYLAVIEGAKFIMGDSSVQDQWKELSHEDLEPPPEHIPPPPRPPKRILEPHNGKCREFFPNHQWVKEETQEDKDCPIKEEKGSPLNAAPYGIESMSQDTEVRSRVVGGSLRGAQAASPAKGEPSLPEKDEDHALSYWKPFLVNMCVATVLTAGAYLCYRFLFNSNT
Description: Inhibition of PTP1B (unknown origin)

[5] = biological target: T1, Tyrosine-protein phosphatase non-receptor type 2; remark: listed apart in the source
Description: Binding affinity to PTPN2 (unknown origin) assessed as inhibition constant

B16-F10 [6] = assay: cells; conditions: Mus musculus; remark: listed apart in the source
Description: Antiproliferative activity against mouse B16-F10 cells

[7] = biological target: Protein cereblon/Tyrosine-protein phosphatase non-receptor type 2 (Homo sapiens, UniProt P17706+Q96SW2); conditions: hek293t
Chain of Protein cereblon/Tyrosine-protein phosphatase non-receptor type 2 (Q96SW2 whole entry, one chain of several): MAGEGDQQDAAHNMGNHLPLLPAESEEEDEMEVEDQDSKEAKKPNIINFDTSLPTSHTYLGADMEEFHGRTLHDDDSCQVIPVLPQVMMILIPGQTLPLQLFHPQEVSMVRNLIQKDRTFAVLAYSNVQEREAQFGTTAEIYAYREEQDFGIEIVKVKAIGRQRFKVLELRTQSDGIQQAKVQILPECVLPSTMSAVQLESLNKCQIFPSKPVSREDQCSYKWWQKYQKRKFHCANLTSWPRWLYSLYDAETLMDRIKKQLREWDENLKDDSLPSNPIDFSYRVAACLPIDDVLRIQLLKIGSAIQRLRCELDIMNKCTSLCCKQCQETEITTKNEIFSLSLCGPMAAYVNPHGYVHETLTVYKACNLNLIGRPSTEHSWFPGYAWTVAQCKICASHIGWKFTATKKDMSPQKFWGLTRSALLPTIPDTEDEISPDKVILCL
Description: PROTAC activity at PTPN2/CRBN in HEK293T cells assessed as protein degradation measured for 48 hrs by Western blot analysis

[8] = biological target: Protein cereblon/Tyrosine-protein phosphatase non-receptor type 1 (Homo sapiens, UniProt P18031+Q96SW2); conditions: hek293t
Chain of Protein cereblon/Tyrosine-protein phosphatase non-receptor type 1 (Q96SW2 whole entry, one chain of several): as above
Description: PROTAC activity at PTP1B/CRBN in HEK293T cells assessed as maximal protein degradation at 10 uM measured for 48 hrs by Western blot analysis relative to control

[9] = biological target: T1, Tyrosine-protein phosphatase non-receptor type 2; remark: listed apart in the source
Description: Inhibition of full length human recombinant PTPN2 by mobility shift assay

[10] = biological target: T1, Tyrosine-protein phosphatase non-receptor type 2; remark: listed apart in the source
Description: Inhibition of PTPN2 (unknown origin)

B16-F10 [11] = assay: cells; conditions: Mus musculus; remark: listed apart in the source
Description: Antiproliferative activity against mouse B16-F10 cells assessed as reduction in cell growth

[12] = biological target: T1, Tyrosine-protein phosphatase non-receptor type 2; remark: listed apart in the source
Description: Inhibition of His-tagged PTPN2 (unknown origin) by mobility shift assay

[13] = biological target: T1, Tyrosine-protein phosphatase non-receptor type 2; remark: listed apart in the source
Description: Inhibition of full length human recombinant PTPN2 using DiFMUP as substrate

Structure (SMILES): O=C1CN(c2c(O)cc(CC3CCCN(CC4CC4)C3)cc2F)S(=O)(=O)N1 (stereo not drawn)
IC50 (B16-F10 [1]): > 46400 nM

Structure (SMILES): CCCC1CCN(C2CCN(Cc3cc(O)c(N4CC(=O)NS4(=O)=O)c(F)c3)C2)C1 (stereo not drawn)
IC50 (B16-F10 [1]): 19300 nM
IC50 [2]: 65 nM

Structure (SMILES): Cc1cc(O)nc(Nc2cc(O)c(N3CC(=O)NS3(=O)=O)c(F)c2)n1
Ki [5]: 1 nM
IC50 (B16-F10 [6]): < 5000 nM

Structure (SMILES): CC(C)CCN1CCC(Cc2cc(O)c(N3CC(=O)NS3(=O)=O)c(F)c2)C1 (stereo not drawn)
IC50 (B16-F10 [1]): 8430 nM

Structure (SMILES): O=C1CN(c2c(O)cc3c(c2F)C[C@H](NCCCC(F)(F)F)CC3)S(=O)(=O)N1
IC50 (B16-F10 [6]): < 50 nM
IC50 [10]: 1 nM

Structure (SMILES): O=C1CN(c2c(O)cc3c(c2F)C[C@H](NCCCC(F)F)CC3)S(=O)(=O)N1
IC50 (B16-F10 [6]): < 50 nM
IC50 [9]: < 0.1 nM
IC50 [10]: < 1 nM

Structure (SMILES): CC(C)(O)CCOc1ccc2cc(O)c(N3CC(=O)NS3(=O)=O)c(F)c2c1
IC50 (B16-F10 [11]): 5800 nM
IC50 [12]: 0.6 nM

Structure (SMILES): O=C1CN(c2c(O)cc(CNc3ncc[nH]3)cc2F)S(=O)(=O)N1
IC50 (B16-F10 [6]): 160 nM
IC50 [13]: 10 nM

Structure (SMILES): O=C1CN(c2c(O)cc3c(c2F)C[C@H](NCCCC(F)F)CS3)S(=O)(=O)N1
IC50 [9]: 2.6 nM

Structure (SMILES): Cc1ccnc(Nc2cc(O)c(N3CC(=O)NS3(=O)=O)c(F)c2)n1
Ki [5]: ≥ 100 nM
IC50 (B16-F10 [6]): ≥ 100000 nM

Structure (SMILES): N[C@@H]1CCc2cc(O)c(N3CC(=O)NS3(=O)=O)c(F)c2CC1
IC50 (B16-F10 [6]): 1630 nM
IC50 [10]: 5.67 nM

Structure (SMILES): Cn1ccnc1NCc1cc(O)c(N2CC(=O)NS2(=O)=O)c(F)c1
IC50 (B16-F10 [6]): 180 nM
IC50 [13]: 6 nM

Structure (SMILES): O=C1CN(c2c(O)cc3c(c2F)C[C@H](NCCC(F)F)CC3)S(=O)(=O)N1
IC50 (B16-F10 [6]): 1500 nM
IC50 [10]: 1 nM

Structure (SMILES): O=C1CN(c2c(O)cc(CC3CCCCNC3)cc2F)S(=O)(=O)N1 (stereo not drawn)
IC50 (B16-F10 [1]): > 100000 nM

Structure (SMILES): CC(C)CCN1CCCC(Cc2cc(O)c(N3CC(=O)NS3(=O)=O)c(F)c2)C1 (stereo not drawn)
IC50 (B16-F10 [1]): > 100000 nM

The remaining lines, values ahead:

IC50 [3]: 369000 nM
IC50 [4]: 472000 nM
Structure (SMILES): O=c1c2ccccc2nnn1O

IC50 [4]: 80 nM
Structure (SMILES): COc1ccc(-c2ccc[nH]2)cc1N1CC(=O)NS1(=O)=O

IC50 [3]: 6500 nM
Structure (SMILES): CCN(CN=O)c1ccc(O)c(O)c1

DC50 [7]: 10 nM
Structure (SMILES): Cn1c(=O)n(C2CCC(=O)NC2=O)c2cccc(C3CCN(C(=O)c4ccc5c(F)c(N6CC(=O)NS6(=O)=O)c(O)cc5c4)CC3)c21 (stereo not drawn)

DC50 [7]: 77 nM
DC50 [8]: 758 nM
Structure (SMILES): Cc1ncsc1-c1ccc([C@H](C)NC(=O)[C@@H]2C[C@@H](O)CN2C(=O)[C@@H](NC(=O)CCCCCCCNC(=O)Cn2cc(-c3ccc4cc(O)c(N5CC(=O)NS5(=O)=O)c(F)c4c3)cn2)C(C)(C)C)cc1

IC50 [9]: 15.2 nM
Structure (SMILES): O=C1CN(c2c(O)cc3c(c2F)CC(CNCCC(F)F)N3)S(=O)(=O)N1 (stereo not drawn)

DC50 [7]: > 1000 nM
Structure (SMILES): Cn1c(=O)n(C2CCC(=O)NC2=O)c2cccc(C3CCN(CCOCCC(=O)NCCOc4ccc5cc(O)c(N6CC(=O)NS6(=O)=O)c(F)c5c4)CC3)c21 (stereo not drawn)

DC50 [7]: 571 nM
DC50 [8]: 2000 nM
Structure (SMILES): Cc1ncsc1-c1ccc([C@H](C)NC(=O)[C@@H]2C[C@@H](O)CN2C(=O)[C@@H](NC(=O)CCCCCCCCCCNC(=O)Cn2cc(-c3ccc4cc(O)c(N5CC(=O)NS5(=O)=O)c(F)c4c3)cn2)C(C)(C)C)cc1

IC50 [3]: 3790 nM
Structure (SMILES): O=C1/C(=N\Nc2ccc(S(=O)(=O)O)cc2)C(c2ccc([N+](=O)[O-])cc2)=NN1c1ccccc1

DC50 [7]: < 50 nM
Structure (SMILES): Cc1nn(CC(=O)Nc2ccc3c(F)c(N4CC(=O)NS4(=O)=O)c(O)cc3c2)c(C)c1-c1ccc2c(c1)n(C)c(=O)n2C1CCC(=O)NC1=O (stereo not drawn)

DC50 [7]: 217 nM
DC50 [8]: 13100 nM
Structure (SMILES): Cc1ncsc1-c1ccc([C@H](C)NC(=O)[C@@H]2C[C@@H](O)CN2C(=O)[C@@H](NC(=O)CCCCCNC(=O)Cn2cc(-c3ccc4cc(O)c(N5CC(=O)NS5(=O)=O)c(F)c4c3)cn2)C(C)(C)C)cc1

IC50 [4]: 40 nM
Structure (SMILES): O=P(O)(O)C(F)(F)c1ccc(CC(Cc2ccc(-c3ccccc3)cc2)(c2ccccc2)n2nnc3ccccc32)cc1 (stereo not drawn)

IC50 [9]: 8.85 nM
Structure (SMILES): O=C1CN(c2c(O)cc3c(c2F)C[C@H](NCCCC(F)F)CO3)S(=O)(=O)N1
